Test results from patent US10328092B2, “Methods and compositions for treatment of drug addiction” (The Royal Institution for the Advancement of Learning / …, priority 2015, dated 2019).

Tests used:
[1] = test system: primary rat microglia cultures; test: TNFα mRNA in primary rat microglia cultures; assay type: cell-based
Protocol: For tissue, total RNA from the ventral striatum was extracted and isolated by RNAqueous-4PCR total RNA isolation kit (Ambion, AM1914), according to manufacturer's instructions. For microglia and astrocyte cultures, total RNA was isolated by RNeasy kit (Qiagen, 74136). For all sample types, 0.5 μg of total RNA was used for cDNA synthesis with Quantitect Reverse Transcription Kit (Qiagen, 205313), and quantitative RT-PCR was performed with Fast SYBR-Green Master Mix (Applied Biosystems) detected by StepOne Plus RealTime PCR system (Applied Biosystems). The sequences of qPCR primers used for mRNA quantification in this study were obtained from Integrated DNA Technologies, and are as follows: mouse TNFα forward, […] (SEQ ID NO: 1) [200 nM]; mouse TNFα reverse, […] (SEQ ID NO: 2) [200 nM]; mouse GAPDH forward, […] (SEQ ID NO: 3) [300 nM]; mouse GAPDH reverse, […] (SEQ ID NO: 4) [300 nM]; rat TNFα forward, […] (SEQ ID NO: 1) [600 nM]; rat TNFα reverse, […] (SEQ ID NO: 5) [600 nM]; rat cyclophilin forward, […] (SEQ ID NO: 6) [500 nM]; rat cyclophilin reverse, […] (SEQ ID NO: 7) [500 nM]. After 40 cycles, the Ct values were determined. To normalize the samples, ΔCt between TNFα and GADPH or cyclophilin Ct values was calculated. The x-fold difference in expression between the different treatments was then determined by subtraction of the ΔCt values and termed ΔΔCt. Finally, the total change was calculated as 2-ΔΔct and the relative amount compared with control samples was deducted.
Mixed microglia-astrocyte primary cultures were prepared from the striatum of postnatal rats (day 0), essentially as described (Beattie et al., 2002). Briefly, tissue was dissociated by […], and cells were seeded in glia media (MEM containing 5% FBS, 1.5% high sucrose MEM and 0.1% glutamax) on culture flasks (Corning) coated with poly-D lysine (Sigma) and placed in a humidified incubator at 37 C with 5% CO2. Neurons were removed by mechanical disruption and the medium was changed at day 1, and every 5-7 days after. […]

[2] = test system: adult microglial cells; test: TNFα mRNA in cultured adult mouse microglia; assay type: cell-based; details: dopamine 0.1 μm, 3 hours; not significant p=0.057
Protocol: (SEQ ID NO: 1) [200 nM]; mouse TNFα reverse, […] (SEQ ID NO: 2) [200 nM]; mouse GAPDH forward, […] (SEQ ID NO: 3) [300 nM]; mouse GAPDH reverse, […] (SEQ ID NO: 4) [300 nM]; rat TNFα forward, […] (SEQ ID NO: 1) [600 nM]; rat TNFα reverse, […] (SEQ ID NO: 5) [600 nM]; rat cyclophilin forward, […] (SEQ ID NO: 6) [500 nM]; rat cyclophilin reverse, […] (SEQ ID NO: 7) [500 nM]. After 40 cycles, the Ct values were determined.
Adult male C57BL/6 mice (8-12 weeks) underwent cardiac perfusion with Hank's Balanced Salt Solution (HBSS) and whole brains were removed. Cortices and striata were dissected, cut in to small pieces and subjected to enzymatic digestion with the Neural Tissue Dissociation Kit (P) (Miltenyi Biotech, US cat no. 130-092-628), as per manufactures instructions. Tissue was homogenised and resuspended in 35% isotonic Percoll, overlayed with HBSS and spun at 400 g for 45 mins for the removal of myelin. Pure populations of microglial cells were obtained through magnetic bead cell sorting using CD11b microbeads (Miltenyi, cat no. 130-093-634). Aliquots from positive and negative bead selected fractions were removed for cell staining to assess cell purity. […] Cells were acquired using a BD FACS Canto II and analyzed using BD FACSDiva software. […]

[3] = test system: primary rat astrocyte cultures; details: dopamine 0.1 μm with ascorbic acid, 3 hours
Protocol: For tissue, total RNA from the ventral striatum was extracted and isolated by RNAqueous-4PCR total RNA isolation kit (Ambion, AM1914), according to manufacturer's instructions. For microglia and astrocyte cultures, total RNA was isolated by RNeasy kit (Qiagen, 74136). For all sample types, 0.5 μg of total RNA was used for cDNA synthesis with Quantitect Reverse Transcription Kit (Qiagen, 205313), and quantitative RT-PCR was performed with Fast SYBR-Green Master Mix (Applied Biosystems) detected by StepOne Plus RealTime PCR system (Applied Biosystems). The sequences of qPCR primers used for mRNA quantification in this study were obtained from Integrated DNA Technologies, and are as follows: mouse TNFα forward, […] (SEQ ID NO: 1) [200 nM]; mouse TNFα reverse, […] (SEQ ID NO: 2) [200 nM]; mouse GAPDH forward, […] (SEQ ID NO: 3) [300 nM]; mouse GAPDH reverse, […] (SEQ ID NO: 4) [300 nM]; rat TNFα forward, […] (SEQ ID NO: 1) [600 nM]; rat TNFα reverse, […] […] After 40 cycles, the Ct values were determined. To normalize the samples, ΔCt between TNFα and GADPH or cyclophilin Ct values was calculated. The x-fold difference in expression between the different treatments was then determined by subtraction of the ΔCt values and termed ΔΔCt. Finally, the total change was calculated as 2-ΔΔct and the relative amount compared with control samples was deducted. […]

Cl.NCCc1ccc(O)c(O)c1 [dopamine, dopamine hydrochloride]
TNFα mRNA in microglia cultures [1]: significantly increased
TNFα mRNA, cultured adult microglia [2]: 160 % of control
TNFα production in astrocytes [3]: does not alter
